Experimental data reported in patent US20070015733A1, “Aryl Phosphate Derivatives of d4T having Activity Against Resistant HIV Strains” (Parker Hughes Institute, priority 1998, published 2007).

What was measured:
[1] = system: AZT-sensitive HIV-1 (strain: HTLVIIIB); assay: Inhibition of HIV-1 HTLVIIIB in PBMC, RT activity assays (Example 14); type: cell-based; conditions: Human immunodeficiency virus 1, PBMC
Method: The compounds, as well as AZT, were tested for their ability to inhibit HIV replication in peripheral blood mononuclear cells using previously described procedures (Zarling et. al., 1990 Nature 347:92; Erice et. al., 1993 Antimicrob. Agents Chemother. 37:835; Uckun et. al., 1998 Antimicrob. Agents Chemother. 42:383). […] Percent viral inhibition was calculated by comparing the RT activity values from the test substance-treated infected cells with RT values from untreated infected cells (i.e., virus controls).

human T-cell line MT2 = assay: Cytotoxicity in MT2 cells; type: cell-based; conditions: even at a 100 μM concentration
Excerpt: Dozens of mutant strains have been characterized as resistant to NNRTI compounds, including L1001, K103N, V106A, E138K, Y181C and Y188H/L. In particular, the Y181 C and K103N mutants may be the most difficult to treat, because they are resistant to most of the NNRTIs compounds that have been examined. […] These clinical HIV-1 isolates also harbor additional RT gene mutations conferring NRTI-resistance and display a zidovudine-resistant phenotype (see Table 11 and Table 12).

[2] = Stability in plasma, whole blood, gastric fluid and intestinal fluid; type: in vitro ADME
Method: Ala-d4T-MP is stable both in plasma and in whole blood. […] This hypothesis is consistent with the formation of a significant amount of d4T after incubation of d4T-5′-[p-bromophenyl methoxyalaninyl phosphate] with a liver homogenate.
Orally administered d4T-5′-[p-bromophenyl methoxyalaninyl phosphate] also yielded Ala-d4T-MP and d4T as the major metabolites. […] This metabolite can be absorbed in the intestine and then further metabolized to yield d4T in the blood. The tmax and t1/2 values for d4T in mice were longer when derived from orally administered d4T-5′-[p-bromophenyl methoxyalaninyl phosphate] (42.4 minutes and 99.0 minutes, respectively) than from orally administered d4T (5 minutes and 18 minutes, respectively). The tmax value is higher but the t1/2 value is lower for orally administered d4T-5′-[p-bromophenyl methoxyalaninyl phosphate] compared to intravenously administered d4T-5′-[p-bromophenyl methoxyalaninyl phosphate]. […] However, the bioavailability of d4T metabolized from d4T-5′-[p-bromophenyl methoxyalaninyl phosphate] (48%) was lower than that of orally administered d4T (98%).

[3] = cited from earlier work

| SMILES | IC50 ([1]; Table 15, preliminary, first human source of PBMC) | IC50 ([1]; Table 16, AZT values in nM per footnote) | IC50 ([1]; Table 17, later analysis from a larger sample pool) | cytotoxicity in MT2 cells (human T-cell line MT2) | stability in gastric fluid ([2]; gastric fluid) | stability in intestinal fluid ([2]; intestinal fluid, forms Ala-d4T-MP) | stability in plasma and whole blood ([2]; plasma or whole blood) | toxicity on daily administration ([3]; intraperitoneally or orally for up to 8 consecutive weeks, cumulative dose levels as high as 6.4 g/kg) | acute or subacute toxicity ([3]; single intraperitoneal or oral bolus dose levels as high as 500 mg/kg) |
| --- | --- | --- | --- | --- | --- | --- | --- | --- | --- |
| Cc1cn([C@H]2C[C@H](N=[N+]=[N-])[C@@H](CO)O2)c(=O)[nH]c1=O [AZT, 3′-azido-3′-deoxythymidine] | 7 nM | 81.7 nM | 4 ± 1 nM | – | – | – | – | – | – |
| COC(=O)C(C)NP(=O)(OC[C@@H]1C=C[C@H](n2cc(C)c(=O)[nH]c2=O)O1)Oc1ccc(Br)cc1 (stereo partly drawn) [Compound 1c, d4T-5′-[p-bromo-phenylmethoxyalaninyl phosphate]] | – | – | – | without any evidence of cytotoxicity | stable in gastric fluid | decomposes readily in intestinal fluid | readily metabolizes | not associated with any detectable toxicity | without any detectable acute or subacute toxicity |
